pEC50: −log10 of the molar value. Where two headings read alike, the source gives them in different places.
Tests used:
[1] = system: L. donovani HU3 strain in mouse peritoneal macrophages; assay: Assay for proliferation of Leishmania parasites in infected mouse peritoneal macrophages (SybrGreen staining, high-content imaging, 5 days); assay type: cell-based, Leishmania donovani; conditions: Leishmania donovani, Peritoneal macrophage, L. donovani in mouse peritoneal macrophages, read-out: L. donovani Macrophage EC50
[2] = system: Trypanosoma brucei Lister 427 strain, bloodstream form; assay: Assay for proliferation of kinetoplastid parasite Trypanosoma brucei (Cell Titer Glo, 48 hours); assay type: cell-based; conditions: Trypanosoma brucei, T. brucei Lister 427 bloodstream form, read-out: T. brucei EC50
Outline: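 Bloodstream-form T. brucei Lister 427 in HMI-9 medium was exposed to compound (DMSO vehicle) for 48 hours at 37° C, 5% CO2. Parasite growth was read as ATP by CellTiter-Glo luminescence, with EC50 calculated from percent inhibition.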

[3] = system: Trypanosoma cruzi amastigotes (Tulahuen strain expressing Lac-Z) cultured in 3T3 fibroblast cells; assay: microbe, parasite or virus in culture; assay type: cell-based; conditions: Trypanosoma cruzi, TULAHUEN, Fibroblast, T. cruzi amastigotes in 3T3 fibroblast cells, read-out: T cruzi EC50
[4] = system: Leishmania donovani axenic amastigote parasites; assay: Leishmania donovani axenic amastigote proliferation assay (Cell TiterGlo luminescence, 2 day incubation); assay type: cell-based; conditions: Leishmania donovani, read-out: L. donovani amastigotes EC50
[5] = axenic amastigotes, inhibition of proliferation

SMILES	pEC50 [1]	pEC50 [2]	pEC50 [3]	pEC50 ([4]; L. donovani axenic amastigotes)	pEC50 ([1]; inhibition of proliferation)	pEC50 ([2]; inhibition of proliferation)	pEC50 ([3]; inhibition of proliferation)	pEC50 [4, 5]
CCCC(=O)OCN(C(=O)OC(C)C)c1cnc2nc(-c3cc(NC(=O)c4oc(C)nc4C)ccc3F)cn2c1 [Compound 556]	7.00	7.15	6.50	7.20	–	–	–	–
CC(C)OC(=O)Nc1cnc2nc(-c3cc(NC4=NCC(C)(C)O4)ccc3F)cn2c1 [Compound 503]	4.57	4.44	< 4.70	< 4.60	–	–	–	–
CC(C)OC(=O)Nc1cnc2nc(-c3cc(NC(=O)C(C)C)ccc3F)cn2c1 [Compound 105]	–	–	–	–	< 4.30	5.83	5.84	5.66
CC(C)c1cnc2nc(-c3cc(NC(=O)N4CCC4)ccc3F)cn2c1 [Compound 411, N-(4-fluoro-3-(6-isopropylimidazo[1,2-a]pyrimidin-2-yl)phenyl)azetidine-1-carboxamide]	6.81	7.66	7.34	7.08	–	–	–	–
Cc1nc(C)c(C(=O)Nc2ccc(F)c(-c3cn4cc(NC(=O)CN(C)C)cnc4n3)c2)o1 [Compound 186]	–	–	–	–	5.21	6.23	4.99	4.80
CCC(C)C(=O)Nc1ccc(F)c(-c2cn3cc(NC(=O)OC(C)C)cnc3n2)c1 (stereo not drawn) [Compound 104]	–	–	–	–	< 4.30	5.92	5.87	5.62
CC(C)OC(=O)Nc1ccc(F)c(-c2cn3cc(-c4ccccn4)cnc3n2)c1 [Compound 314]	–	–	–	–	7.02	7.29	7.82	7.34
Cc1nc(C)c(C(=O)Nc2ccc(F)c(-c3cn4cc(-c5ccnn5C)cnc4n3)c2)o1 [Compound 393]	6.74	6.96	6.83	6.83	–	–	–	–
CN(C)C(=O)Nc1ccc(F)c(-c2cn3cc(F)cnc3n2)c1 [Compound 230]	–	–	–	–	4.93	6.49	5.88	5.56
Cc1nc(C)c(C(=O)Nc2ccc(F)c(-c3cn4cc(OCC5CC5)cnc4n3)c2)o1 [Compound 610]	6.57	6.82	6.96	6.92	–	–	–	–
CC(C)OC(=O)Nc1cnc2nc(-c3cc(NC(=O)N4CCCC4c4ccccn4)ccc3Cl)cn2c1 (stereo not drawn) [Compound 259]	–	–	–	–	4.62	4.46	4.96	< 4.65
CC(C)OC(=O)Nc1cnc2nc(-c3cc(NC(=O)N4C[C@@H]5C[C@H]4CO5)ccc3Cl)cn2c1 [Compound 258]	–	–	–	–	< 4.37	4.88	< 4.70	4.70
CC(C)Nc1cnc2nc(-c3cc(NC(=O)N4CCCC4)ccc3F)cn2c1 [Compound 476]	6.45	7.38	6.82	6.82	–	–	–	–
Cc1nc(C)c(C(=O)Nc2ccc(F)c(-c3cn4cc(C5CCCC5)cnc4n3)c2)o1 [Compound 422]	6.52	7.48	6.71	6.90	–	–	–	–
Cc1ccccc1-c1cnc2nc(-c3cc(NC(=O)N4CCCC4)ccc3F)cn2c1 [Compound 356]	–	–	–	–	6.48	7.74	7.80	7.06
CC(C)Nc1cnc2nc(-c3cc(NC(=O)N4CC(F)(F)C4)ccc3F)cn2c1 [Compound 460, 3,3-difluoro-N-(4-fluoro-3-(6-(isopropylamino)imidazo[1,2-a]pyrimidin-2-yl)phenyl)azetidine-1-carboxamide]	6.68	6.79	6.74	6.62	–	–	–	–
CCC(C)Nc1cnc2nc(-c3cc(NC(=O)c4oc(C)nc4C)ccc3F)cn2c1 (stereo not drawn) [Compound 464]	6.17	6.96	6.83	6.33	–	–	–	–
Cc1nc(C)c(C(=O)Nc2ccc(F)c(-c3cn4cc(NC5CCC5)cnc4n3)c2)o1 [Compound 482]	6.00	6.31	6.26	6.24	–	–	–	–
CC(C)OC(=O)Nc1cnc2nc(-c3cc(NC4=NCC(C)O4)ccc3F)cn2c1 (stereo not drawn) [Compound 501]	< 4.30	5.50	4.98	< 4.60	–	–	–	–
Cc1nc(C)c(C(=O)Nc2ccc(F)c(-c3cn4cc(NC5=NCC(C)(C)N5)cnc4n3)c2)o1 [Compound 509]	< 4.30	4.99	< 4.70	< 4.60	–	–	–	–
Cc1ncoc1C(=O)Nc1cccc(-c2cn3cc(NC(=O)OC(C)C)cnc3n2)c1 [Compound 204]	–	–	–	–	4.72	6.17	5.39	6.03

SMILES	pEC50 [1]	pEC50 [2]	pEC50 [3]	pEC50 ([4]; L. donovani axenic amastigotes)	pEC50 ([1]; inhibition of proliferation)	pEC50 ([2]; inhibition of proliferation)	pEC50 ([3]; inhibition of proliferation)	pEC50 [4, 5]
O=C(Nc1ccc(F)c(-c2cn3cc(F)cnc3n2)c1)N1CC(F)C1 [Compound 231]	–	–	–	–	5.76	6.50	6.38	6.51
O=C1CCC(C(=O)Nc2cnc3nc(-c4cc(NC(=O)N5CCCC5)ccc4F)cn3c2)N1 (stereo not drawn) [Compound 125]	–	–	–	–	< 4.30	5.10	< 4.70	< 4.66
Cc1nc(C)c(C(=O)Nc2ccc(F)c(-c3cn4cc(NC5=NCC(C(F)(F)F)O5)cnc4n3)c2)o1 (stereo not drawn) [Compound 508]	5.08	5.36	4.94	5.77	–	–	–	–
Cc1cnc(F)c(-c2cnc3nc(-c4cc(NC(=O)c5oc(C)nc5C)ccc4F)cn3c2)c1 [Compound 439]	6.12	6.92	7.05	6.97	–	–	–	–
CC(C)OC(=O)Nc1cnc2nc(-c3cc(NC(=O)N(C)C)ccc3Cl)cn2c1 [Compound 246]	–	–	–	–	5.92	7.07	6.21	6.25
CN(C)C(=O)Nc1ccc(F)c(-c2cn3cc(-c4ccccc4)cnc3n2)c1 [Compound 323]	–	–	–	–	6.56	7.33	7.34	7.01
Cc1nc(C)c(C(=O)Nc2ccc(F)c(-c3cn4cc(NC5=N[C@H]6CCCC[C@@H]6O5)cnc4n3)c2)o1 [Compound 510]	5.09	5.40	5.58	5.80	–	–	–	–
CC(C)OC(=O)Nc1cnc2nc(-c3cc(NC(=O)C4CCC4)ccc3F)cn2c1 [Compound 102]	–	–	–	–	5.77	6.31	6.33	6.27
Cc1cncc(-c2cnc3nc(-c4cc(NC(=O)c5oc(C)nc5C)ccc4F)cn3c2)c1 [Compound 440]	6.70	6.50	6.62	6.92	–	–	–	–
Cc1nnc(C(=O)Nc2cccc(-c3cn4cc(NC(=O)OC(C)C)cnc4n3)c2)o1 [Compound 526, isopropyl (2-(3-(5-methyl-1,3,4-oxadiazole-2-carboxamido)phenyl)imidazo[1,2-a]pyrimidin-6-yl)carbamate]	< 4.30	< 4.30	< 4.70	< 4.60	–	–	–	–
Cc1nc(C)c(C(=O)Nc2cnc3nc(-c4cc(NC(=O)N5CCCC5)ccc4F)cn3c2)o1 [Compound 123]	–	–	–	–	< 4.30	6.38	< 4.70	6.37
O=C(Nc1ccc(F)c(-c2cn3cc(NC(=O)C4(O)CC4)cnc3n2)c1)N1CCCC1 [Compound 140]	–	–	–	–	5.08	6.42	< 4.75	5.90
Cc1nc(C)c(C(=O)Nc2ccc(F)c(-c3cn4cc(C5=CCCN(C)C5)cnc4n3)c2)o1 [Compound 375]	6.30	6.87	6.52	5.37	–	–	–	–
Cc1nc(C)c(C(=O)Nc2ccc(F)c(-c3cn4cc(NCC(C)C)cnc4n3)c2)o1 [Compound 463]	6.29	6.62	6.79	6.24	–	–	–	–
CC(C)OC(=O)Nc1cnc2nc(-c3cc(NC(=O)c4ccc(Br)s4)ccc3F)cn2c1 [Compound 82]	–	–	–	–	5.41	5.38	5.92	5.30
Cc1nc(C)c(C(=O)Nc2ccc(F)c(-c3cn4cc(-c5cnn(CCN6CCOCC6)c5)cnc4n3)c2)o1 [Compound 388]	5.53	6.38	5.45	6.00	–	–	–	–
CC(C)OC(=O)Nc1ccc(F)c(-c2cn3cc(-c4ccccc4)cnc3n2)c1 [Compound 331]	–	–	–	–	6.44	6.94	7.28	6.40
Cc1nc(C)c(C(=O)Nc2ccc(F)c(-c3cn4cc(NC(=O)C5CN(C(=O)OC(C)(C)C)CCCO5)cnc4n3)c2)o1 (stereo not drawn) [Compound 173]	–	–	–	–	6.24	6.83	6.39	6.45
O=C(Nc1ccc(F)c(-c2cn3cc(C4=CCOCC4)cnc3n2)c1)N1CC(F)C1 [Compound 318]	–	–	–	–	6.88	7.72	6.84	7.51
CNc1ccc(-c2cnc3nc(-c4cc(NC(=O)c5oc(C)nc5C)ccc4F)cn3c2)cc1 [Compound 392]	6.82	7.26	7.32	6.99	–	–	–	–
Cc1nc(C)c(C(=O)Nc2ccc(F)c(-c3cn4cc(Nc5ncccc5C(F)(F)F)cnc4n3)c2)o1 [Compound 488]	6.88	7.24	7.44	7.49	–	–	–	–

Reference: patent US20160045505A1, “COMPOUNDS AND COMPOSITIONS FOR THE TREATMENT OF PARASITIC DISEASES” (NOVARTIS AG, priority 2013, published 2016)
